In patent publication US10376520B2, “Methods for the treatment of cardiovascular disorders” (Galapagos NV, priority 2015, dated 2019):

Tested on: Subjects With Active Crohn's Disease
Test: Total cholesterol determination, Study 5 (Crohn's disease, monotherapy of Compound 1)
Type: in vivo, human
Text: Double-Blind, Randomized, Placebo-Controlled, Multi-Centre Study to Investigate the Efficacy and Safety of Compound 1 in Subjects With Active Crohn's Disease With Evidence of Mucosal Ulceration.
This is a double-blind, randomized, placebo-controlled, multi-centre Phase 2 study to investigate the efficacy and safety of Compound 1 administered once daily for the treatment of active CD with evidence of mucosal ulceration. The pharmacokinetics (including a PK substudy) and pharmacodynamics of Compound 1 and metabolite in CD will also be characterised.
A total of 180 eligible subjects will be randomized to receive Compound 1 or placebo in addition to their stable background treatment (eg, corticosteroids, aminosalicylates, or CD-related antibiotics). The study will consist of 2 parts, with total treatment duration of 20 weeks. Randomization in Part 1 will be stratified according the subject's previous anti-TNF exposure/response, CRP level at Screening, and oral corticosteroid use at visit Day −1.
After the first 10 weeks of treatment in Part 1, patients will be re-randomized for Part 2 as shown in the diagram below and will be stratified according to the subject's clinical response, previous anti-TNF exposure/response, and oral corticosteroid use at visit Day −1.
The following assays were conducted at Eurofins Global Central Laboratory, Bergschot 71, 4817 PA Breda, The Netherlands, and at Quest Diagnostics, Clinical Trials, Quest House, 125-135 Staines Road, Hounslow, Middlesex, TW3 3JB, United Kingdom. The assays for Study 5 were performed at BARC Europe, 3B, Industrie Park, Zwijnaarde, B-9052 Ghent, Belgium.
This method is based on the determination of Δ^4 cholestenone after enzymatic cleavage of the cholesterol ester by cholesterol esterase, conversion of cholesterol by cholesterol oxidase, and subsequent measurement by the Trinder reaction of the hydrogen peroxide formed (Allain et al., 1974).
Cholesterol esters are cleaved by the action of cholesterol esterase to yield free cholesterol and fatty acids. Cholesterol oxidase then catalyzes the oxidation of cholesterol to cholest-4-en-3-one and hydrogen peroxide. In the presence of peroxidase, the hydrogen peroxide formed effects the oxidative coupling of phenol and 4-aminophenazone to form a red quinone-imine dye. The color intensity of the dye formed is directly proportional to the cholesterol concentration. It is determined by measuring the increase in absorbance.
Human serum and plasma samples cholesterol determination was done on a Roche/Hitachi Cobas c 701/702 system which automatically calculate the analyte concentration of each sample.

[1] = 200 mg q.d. continued to week 20, week 2
[2] = 200 mg q.d. continued to week 20, week 4
[3] = 200 mg q.d. continued to week 20, week 6
[4] = 200 mg q.d. continued to week 20, week 10
[5] = 200 mg q.d. continued to week 20, week 12
[6] = 200 mg q.d. continued to week 20, week 16
[7] = 200 mg q.d. continued to week 20, week 20
[8] = 200 mg q.d. week 0 to 10, to 100 mg q.d. week 10 to 20, week 2
[9] = 200 mg q.d. week 0 to 10, to 100 mg q.d. week 10 to 20, week 4
[10] = 200 mg q.d. week 0 to 10, to 100 mg q.d. week 10 to 20, week 6
[11] = 200 mg q.d. week 0 to 10, to 100 mg q.d. week 10 to 20, week 10
[12] = 200 mg q.d. week 0 to 10, to 100 mg q.d. week 10 to 20, week 12
[13] = 200 mg q.d. week 0 to 10, to 100 mg q.d. week 10 to 20, week 16
[14] = 200 mg q.d. week 0 to 10, to 100 mg q.d. week 10 to 20, week 20
[15] = 200 mg q.d. week 0 to 10, to placebo week 10 to 20, week 2
[16] = 200 mg q.d. week 0 to 10, to placebo week 10 to 20, week 4
[17] = 200 mg q.d. week 0 to 10, to placebo week 10 to 20, week 6
[18] = 200 mg q.d. week 0 to 10, to placebo week 10 to 20, week 10
[19] = 200 mg q.d. week 0 to 10, to placebo week 10 to 20, week 12
[20] = 200 mg q.d. week 0 to 10, to placebo week 10 to 20, week 16
[21] = 200 mg q.d. week 0 to 10, to placebo week 10 to 20, week 20
[22] = Study 5 10 weeks results, 200 mg q.d., week 2
[23] = Study 5 10 weeks results, 200 mg q.d., week 4
[24] = Study 5 10 weeks results, 200 mg q.d., week 6
[25] = Study 5 10 weeks results, 200 mg q.d., week 10
[26] = Study 5 20 weeks results, 200 mg q.d. to 100 mg q.d. at week 10, week 2
[27] = Study 5 20 weeks results, 200 mg q.d. to 100 mg q.d. at week 10, week 4
[28] = Study 5 20 weeks results, 200 mg q.d. to 100 mg q.d. at week 10, week 6
[29] = Study 5 20 weeks results, 200 mg q.d. to 100 mg q.d. at week 10, week 10
[30] = Study 5 20 weeks results, 200 mg q.d. to 100 mg q.d. at week 10, week 12
[31] = Study 5 20 weeks results, 200 mg q.d. to 100 mg q.d. at week 10, week 16
[32] = Study 5 20 weeks results, 200 mg q.d. to 100 mg q.d. at week 10, week 20
[33] = Study 5 20 weeks results, 200 mg q.d. to placebo at week 10, week 2
[34] = Study 5 20 weeks results, 200 mg q.d. to placebo at week 10, week 4
[35] = Study 5 20 weeks results, 200 mg q.d. to placebo at week 10, week 6
[36] = Study 5 20 weeks results, 200 mg q.d. to placebo at week 10, week 10
[37] = Study 5 20 weeks results, 200 mg q.d. to placebo at week 10, week 12
[38] = Study 5 20 weeks results, 200 mg q.d. to placebo at week 10, week 16
[39] = Study 5 20 weeks results, 200 mg q.d. to placebo at week 10, week 20
[40] = Study 5 20 weeks results, continued 200 mg q.d., week 2
[41] = Study 5 20 weeks results, continued 200 mg q.d., week 4
[42] = Study 5 20 weeks results, continued 200 mg q.d., week 6
[43] = Study 5 20 weeks results, continued 200 mg q.d., week 10
[44] = Study 5 20 weeks results, continued 200 mg q.d., week 12
[45] = Study 5 20 weeks results, continued 200 mg q.d., week 16
[46] = Study 5 20 weeks results, continued 200 mg q.d., week 20
[47] = Study 5 20 weeks results, placebo to 100 mg q.d. at week 10, week 12
[48] = Study 5 20 weeks results, placebo to 100 mg q.d. at week 10, week 16
[49] = Study 5 20 weeks results, placebo to 100 mg q.d. at week 10, week 20
[50] = placebo week 0 to 10, to 100 mg q.d. week 10 to 20, week 12
[51] = placebo week 0 to 10, to 100 mg q.d. week 10 to 20, week 16
[52] = placebo week 0 to 10, to 100 mg q.d. week 10 to 20, week 20

O=C(Nc1nc2cccc(-c3ccc(CN4CCS(=O)(=O)CC4)cc3)n2n1)C1CC1 [Compound 1, cyclopropanecarboxylic acid {5-[4-(1,1-dioxo-thiomorpholin-4-ylmethyl)-phenyl]-[1,2,4]triazolo[1,5-a]pyridin-2yl}-amide]
[Total cholesterol] Mean CFB - 20 weeks results [1]: 7.30%
[Total cholesterol] Median CFB - 20 weeks results [1]: 5.15%
[Total cholesterol] Mean CFB - 20 weeks results [2]: 5.06%
[Total cholesterol] Median CFB - 20 weeks results [2]: 2.70%
[Total cholesterol] Mean CFB - 20 weeks results [3]: 6.70%
[Total cholesterol] Median CFB - 20 weeks results [3]: 7.88%
[Total cholesterol] Mean CFB - 20 weeks results [4]: 11.58%
[Total cholesterol] Median CFB - 20 weeks results [4]: 9.98%
[Total cholesterol] Mean CFB - 20 weeks results [5]: 11.06%
[Total cholesterol] Median CFB - 20 weeks results [5]: 6.99%
[Total cholesterol] Mean CFB - 20 weeks results [6]: 11.13%
[Total cholesterol] Median CFB - 20 weeks results [6]: 6.91%
[Total cholesterol] Mean CFB - 20 weeks results [7]: 11.03%
[Total cholesterol] Median CFB - 20 weeks results [7]: 5.31%
[Total cholesterol] Mean CFB - 20 weeks results [8]: 4.54%
[Total cholesterol] Median CFB - 20 weeks results [8]: 4.08%
[Total cholesterol] Mean CFB - 20 weeks results [9]: 6.72%
[Total cholesterol] Median CFB - 20 weeks results [9]: 1.92%
[Total cholesterol] Mean CFB - 20 weeks results [10]: 6.47%
[Total cholesterol] Median CFB - 20 weeks results [10]: 5.89%
[Total cholesterol] Mean CFB - 20 weeks results [11]: 9.72%
[Total cholesterol] Median CFB - 20 weeks results [11]: 7.10%
[Total cholesterol] Mean CFB - 20 weeks results [12]: 5.38%
[Total cholesterol] Median CFB - 20 weeks results [12]: 7.04%
[Total cholesterol] Mean CFB - 20 weeks results [13]: 2.89%
[Total cholesterol] Median CFB - 20 weeks results [13]: 2.83%
[Total cholesterol] Mean CFB - 20 weeks results [14]: 3.80%
[Total cholesterol] Median CFB - 20 weeks results [14]: 2.28%
[Total cholesterol] Mean CFB - 20 weeks results [15]: 3.98%
[Total cholesterol] Median CFB - 20 weeks results [15]: 3.93%
[Total cholesterol] Mean CFB - 20 weeks results [16]: 6.98%
[Total cholesterol] Median CFB - 20 weeks results [16]: 6.38%
[Total cholesterol] Mean CFB - 20 weeks results [17]: 5.72%
[Total cholesterol] Median CFB - 20 weeks results [17]: 7.32%
[Total cholesterol] Mean CFB - 20 weeks results [18]: 5.28%
[Total cholesterol] Median CFB - 20 weeks results [18]: 3.89%
[Total cholesterol] Mean CFB - 20 weeks results [19]: 1.82%
[Total cholesterol] Median CFB - 20 weeks results [19]: 3.93%
[Total cholesterol] Mean CFB - 20 weeks results [20]: 5.24%
[Total cholesterol] Median CFB - 20 weeks results [20]: 1.36%
[Total cholesterol] Mean CFB - 20 weeks results [21]: 3.92%
[Total cholesterol] Median CFB - 20 weeks results [21]: 2.50%
[Total cholesterol] Mean CFB - 10 weeks results (200 mg q.d., week 2): 6.066%
[Total cholesterol] Median CFB - 10 weeks results (200 mg q.d., week 2): 4.148%
[Total cholesterol] Mean CFB - 10 weeks results (200 mg q.d., week 4): 5.803%
[Total cholesterol] Median CFB - 10 weeks results (200 mg q.d., week 4): 3.803%
[Total cholesterol] Mean CFB - 10 weeks results (200 mg q.d., week 6): 6.458%
[Total cholesterol] Median CFB - 10 weeks results (200 mg q.d., week 6): 7.187%
[Total cholesterol] Mean CFB - 10 weeks results (200 mg q.d., week 10): 9.976%
[Total cholesterol] Median CFB - 10 weeks results (200 mg q.d., week 10): 7.456%
[Total cholesterol] Median CFB [22]: 0.200 mmol/L
[total cholesterol] Mean CFB [22]: 0.231 mmol/L
[Total cholesterol] Median CFB [23]: 0.180 mmol/L
[total cholesterol] Mean CFB [23]: 0.194 mmol/L
[Total cholesterol] Median CFB [24]: 0.300 mmol/L
[total cholesterol] Mean CFB [24]: 0.215 mmol/L
[Total cholesterol] Median CFB [25]: 0.340 mmol/L
[total cholesterol] Mean CFB [25]: 0.401 mmol/L
[Total cholesterol] Median CFB [26]: 0.19 mmol/L
[total cholesterol] Mean CFB [26]: 0.18 mmol/L
[Total cholesterol] Median CFB [27]: 0.12 mmol/L
[total cholesterol] Mean CFB [27]: 0.27 mmol/L
[Total cholesterol] Median CFB [28]: 0.28 mmol/L
[total cholesterol] Mean CFB [28]: 0.26 mmol/L
[Total cholesterol] Median CFB [29]: 0.38 mmol/L
[total cholesterol] Mean CFB [29]: 0.44 mmol/L
[Total cholesterol] Median CFB [30]: 0.33 mmol/L
[total cholesterol] Mean CFB [30]: 0.23 mmol/L
[Total cholesterol] Median CFB [31]: 0.13 mmol/L
[total cholesterol] Mean CFB [31]: 0.09 mmol/L
[Total cholesterol] Median CFB [32]: 0.10 mmol/L
[total cholesterol] Mean CFB [32]: 0.14 mmol/L
[Total cholesterol] Median CFB [33]: 0.24 mmol/L
[total cholesterol] Mean CFB [33]: 0.16 mmol/L
[Total cholesterol] Median CFB [34]: 0.34 mmol/L
[total cholesterol] Mean CFB [34]: 0.27 mmol/L
[Total cholesterol] Median CFB [35]: 0.29 mmol/L
[total cholesterol] Mean CFB [35]: 0.22 mmol/L
[Total cholesterol] Median CFB [36]: 0.23 mmol/L
[total cholesterol] Mean CFB [36]: 0.22 mmol/L
[Total cholesterol] Median CFB [37]: 0.18 mmol/L
[total cholesterol] Mean CFB [37]: 0.04 mmol/L
[Total cholesterol] Median CFB [38]: 0.05 mmol/L
[total cholesterol] Mean CFB [38]: 0.19 mmol/L
[Total cholesterol] Median CFB [39]: 0.07 mmol/L
[total cholesterol] Mean CFB [39]: 0.18 mmol/L
[Total cholesterol] Median CFB [40]: 0.21 mmol/L
[total cholesterol] Mean CFB [40]: 0.27 mmol/L
[Total cholesterol] Median CFB [41]: 0.16 mmol/L
[total cholesterol] Mean CFB [41]: 0.14 mmol/L
[Total cholesterol] Median CFB [42]: 0.33 mmol/L
[total cholesterol] Mean CFB [42]: 0.19 mmol/L
[Total cholesterol] Median CFB [43]: 0.47 mmol/L
[total cholesterol] Mean CFB [43]: 0.43 mmol/L
[Total cholesterol] Median CFB [44]: 0.29 mmol/L
[total cholesterol] Mean CFB [44]: 0.42 mmol/L
[Total cholesterol] Median CFB [45]: 0.31 mmol/L
[total cholesterol] Mean CFB [45]: 0.43 mmol/L
[Total cholesterol] Median CFB [46]: 0.26 mmol/L
[total cholesterol] Mean CFB [46]: 0.40 mmol/L
[Total cholesterol] Median CFB [47]: 0.02 mmol/L
[total cholesterol] Mean CFB [47]: 0.11 mmol/L
[Total cholesterol] Median CFB [48]: 0.01 mmol/L
[total cholesterol] Mean CFB [48]: 0.08 mmol/L
[Total cholesterol] Median CFB [49]: 0.10 mmol/L
[total cholesterol] Mean CFB [49]: 0.03 mmol/L
[Total cholesterol] Mean CFB - 20 weeks results [50]: 2.49%
[Total cholesterol] Median CFB - 20 weeks results [50]: 0.41%
[Total cholesterol] Mean CFB - 20 weeks results [51]: 2.84%
[Total cholesterol] Median CFB - 20 weeks results [51]: 0.19%
[Total cholesterol] Mean CFB - 20 weeks results [52]: 1.90%
[Total cholesterol] Median CFB - 20 weeks results [52]: 2.81%
